Measurements reported in ChEMBL document CHEMBL1201862, “PubChem BioAssay data set” (2004).
One block for each molecule: values may come before it. Active and inactive are the calls of the source.

What was measured:
Steroidogenic factor 1 = Steroidogenic factor 1 (Homo sapiens, UniProt Q13285); assay: Counterscreen for inverse agonists of the liver receptor homolog-1 (LRH-1; NR5A2): Luminescence-based cell-based high throughput dose response assay to identify inverse agonists of the Steroidogenic Factor 1 Nuclear Receptor (SF1; NR5A1).; type: functional
[1] = StAR promoter reporter inhibition counter-screen, dose response, counter-screen for LRH-1 inverse agonist project, cell-based, luminescence, luciferase reporter (AID 651969); type: functional
[2] = target: Nuclear receptor subfamily 5 group A member 2 (Homo sapiens, UniProt O00482); type: functional, cell-based;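 note: HEK293T cells transfected with LRH-1 and a StAR promoter luciferase reporter; potency for inhibitors that lower LRH-1 driven reporter light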
[3] = NIH/3T3 fibroblast cytotoxicity, dose response, cytotoxicity control for T. cruzi growth inhibitor project, cell-based, cherry-pick samples, set 2 (AID 651817); type: functional; settings: NIH3T3
[4] = intracellular Trypanosoma cruzi inhibitors in host cells – cell-based, plate reader, cherry-pick samples, set 3, dose response (AID 651818); type: functional;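 note: compounds incubated with infected cells for about four days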
[5] = target: 5-hydroxytryptamine receptor 2A (Mus musculus, UniProt P35363); type: functional, cell-based;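 note: CHO-K1 cells with tagged receptor and beta-arrestin; agonist potency measured as compound-induced activation of the receptor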
Mu-type opioid receptor = Mu-type opioid receptor (Homo sapiens, UniProt P35372); type: functional, cell-based;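 note: U2OS cells with beta-arrestin recruitment to OPRM1 by beta-gal complementation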
[6] = target: ADP-ribosylation factor GTPase-activating protein 1 (Rattus norvegicus, UniProt Q62848); assay: Fluorescence polarization-based biochemical high throughput dose response screening assay to identify inhibitors of ADP-ribosylation factor GTPase activating protein 1 (ARFGAP1).; type: functional
[7] = target: Arf-GAP with SH3 domain, ANK repeat and PH domain-containing protein 1 (Homo sapiens, UniProt Q9ULH1); type: functional;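 note: biochemical fluorescence polarization dose–response screen measuring inhibition of ASAP1; ASAP1 GAP domain stimulating GTP hydrolysis by truncated human ARF1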
[8] = growth suppression of PTEN-null colon cells, dose response, cell-based, HCT116 PTEN knockout (AID 1047); type: functional;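 note: HCT116 colon tumor cells with PTEN knocked out; cells exposed to compound for 60 hours before readout; potency for loss of cell viability measured by luminescence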
[9] = cytotoxicity in HPDE-C7 cells, cell-based, fluorescence, HTS (AID 430); type: functional; settings: Homo sapiens
[10] = target: T1, Tyrosine-protein phosphatase non-receptor type 22 (Homo sapiens, UniProt Q9Y2R2); assay: LYP phosphatase inhibition for selectivity, dose response, selectivity assay for LMPTP inhibitor project, biochemical, fluorescence, LYP catalytic domain (AID 652006); type: functional; settings: read-out: IC50_Mean
T1 sequence (Q9Y2R2 whole entry): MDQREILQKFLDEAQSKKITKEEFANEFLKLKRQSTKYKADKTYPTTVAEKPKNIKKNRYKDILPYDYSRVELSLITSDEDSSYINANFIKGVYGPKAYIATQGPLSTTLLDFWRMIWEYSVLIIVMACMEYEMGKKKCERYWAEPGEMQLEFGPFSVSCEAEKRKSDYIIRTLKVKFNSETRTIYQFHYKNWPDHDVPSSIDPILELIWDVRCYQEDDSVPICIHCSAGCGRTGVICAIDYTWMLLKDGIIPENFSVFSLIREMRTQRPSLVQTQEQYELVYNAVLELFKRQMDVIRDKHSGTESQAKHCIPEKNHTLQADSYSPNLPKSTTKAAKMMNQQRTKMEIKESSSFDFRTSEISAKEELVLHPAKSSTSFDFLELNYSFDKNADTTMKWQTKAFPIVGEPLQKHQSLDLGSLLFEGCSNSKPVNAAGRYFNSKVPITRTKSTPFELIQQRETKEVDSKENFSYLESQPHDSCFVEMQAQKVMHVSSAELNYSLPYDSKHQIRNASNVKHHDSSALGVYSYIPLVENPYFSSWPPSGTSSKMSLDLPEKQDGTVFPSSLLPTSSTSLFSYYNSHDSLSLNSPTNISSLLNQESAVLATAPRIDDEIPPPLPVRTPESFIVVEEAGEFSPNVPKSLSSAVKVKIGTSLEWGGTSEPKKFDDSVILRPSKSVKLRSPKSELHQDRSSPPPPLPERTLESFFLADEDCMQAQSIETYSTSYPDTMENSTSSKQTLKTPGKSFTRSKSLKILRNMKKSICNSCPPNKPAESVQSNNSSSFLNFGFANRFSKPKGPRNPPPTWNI

[11] = growth suppression of beta-catenin-knockout colon cells, dose response, cell-based, HCT116, human colon tumor (AID 1045); type: functional;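 note: HCT116 colon tumor cells with beta catenin knocked out; cells exposed to compound for 60 hours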
[12] = target: T2, Low molecular weight phosphotyrosine protein phosphatase (Homo sapiens, UniProt P24666); type: functional; settings: read-out: IC50_Mean;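 note: Dose-response confirmation assay measuring inhibition of LMPTP enzyme activity by fluorescence intensity read-out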
T2 sequence (P24666 whole entry): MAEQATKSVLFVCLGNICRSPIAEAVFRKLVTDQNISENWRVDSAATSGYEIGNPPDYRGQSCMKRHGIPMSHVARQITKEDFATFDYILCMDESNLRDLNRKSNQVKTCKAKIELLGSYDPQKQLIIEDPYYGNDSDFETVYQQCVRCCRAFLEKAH

[13] = cytotoxicity in KRAS-transformed pancreatic duct cells, primary screen, cell-based, fluorescence, HTS (AID 431); type: functional; settings: Homo sapiens;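 note: cell line used: HPDE-C7K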

Sequence of Arf-GAP with SH3 domain, ANK repeat and PH domain-containing protein 1 (Q9ULH1 whole entry, the tested form may be a part): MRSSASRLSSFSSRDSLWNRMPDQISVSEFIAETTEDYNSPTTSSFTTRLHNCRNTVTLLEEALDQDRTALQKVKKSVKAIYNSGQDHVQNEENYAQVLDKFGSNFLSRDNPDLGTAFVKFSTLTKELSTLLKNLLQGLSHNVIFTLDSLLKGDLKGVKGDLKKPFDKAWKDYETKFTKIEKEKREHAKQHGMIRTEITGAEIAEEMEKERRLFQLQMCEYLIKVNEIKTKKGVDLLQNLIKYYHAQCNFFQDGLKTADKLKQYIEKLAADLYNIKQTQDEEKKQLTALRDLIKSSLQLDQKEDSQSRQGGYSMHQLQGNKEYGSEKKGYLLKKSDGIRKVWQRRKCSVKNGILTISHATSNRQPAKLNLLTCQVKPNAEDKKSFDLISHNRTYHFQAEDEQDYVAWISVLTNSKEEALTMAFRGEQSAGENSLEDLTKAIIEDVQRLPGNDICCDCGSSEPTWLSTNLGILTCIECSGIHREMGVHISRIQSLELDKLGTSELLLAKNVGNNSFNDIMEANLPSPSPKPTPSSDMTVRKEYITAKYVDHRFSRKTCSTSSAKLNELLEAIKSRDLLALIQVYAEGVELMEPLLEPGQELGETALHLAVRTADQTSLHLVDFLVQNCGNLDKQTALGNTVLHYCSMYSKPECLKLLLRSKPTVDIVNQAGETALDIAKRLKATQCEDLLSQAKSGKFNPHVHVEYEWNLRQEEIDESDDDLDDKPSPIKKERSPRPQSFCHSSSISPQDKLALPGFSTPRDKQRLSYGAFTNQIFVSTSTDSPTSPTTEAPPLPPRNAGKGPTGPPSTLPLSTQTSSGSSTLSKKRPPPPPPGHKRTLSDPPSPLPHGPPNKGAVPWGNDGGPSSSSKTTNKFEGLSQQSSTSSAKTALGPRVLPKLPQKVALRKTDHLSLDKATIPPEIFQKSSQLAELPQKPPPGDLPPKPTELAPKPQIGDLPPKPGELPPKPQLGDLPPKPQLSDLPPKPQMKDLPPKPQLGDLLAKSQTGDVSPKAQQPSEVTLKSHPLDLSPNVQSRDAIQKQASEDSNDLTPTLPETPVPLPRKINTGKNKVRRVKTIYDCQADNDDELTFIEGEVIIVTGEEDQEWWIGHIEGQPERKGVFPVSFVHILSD
Sequence of Steroidogenic factor 1 (Q13285 whole entry): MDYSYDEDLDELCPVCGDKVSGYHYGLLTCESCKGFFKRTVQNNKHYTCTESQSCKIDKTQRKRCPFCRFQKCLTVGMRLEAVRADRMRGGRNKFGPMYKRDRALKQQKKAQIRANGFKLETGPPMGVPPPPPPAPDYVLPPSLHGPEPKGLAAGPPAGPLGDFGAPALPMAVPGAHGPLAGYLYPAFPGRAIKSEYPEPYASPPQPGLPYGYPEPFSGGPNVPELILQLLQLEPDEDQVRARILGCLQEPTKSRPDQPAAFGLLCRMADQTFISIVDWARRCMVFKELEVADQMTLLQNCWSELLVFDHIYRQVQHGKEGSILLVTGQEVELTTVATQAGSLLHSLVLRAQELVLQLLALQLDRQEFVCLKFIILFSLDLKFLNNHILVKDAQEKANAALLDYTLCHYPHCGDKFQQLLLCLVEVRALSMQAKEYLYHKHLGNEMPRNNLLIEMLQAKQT
Sequence of Nuclear receptor subfamily 5 group A member 2 (O00482 whole entry): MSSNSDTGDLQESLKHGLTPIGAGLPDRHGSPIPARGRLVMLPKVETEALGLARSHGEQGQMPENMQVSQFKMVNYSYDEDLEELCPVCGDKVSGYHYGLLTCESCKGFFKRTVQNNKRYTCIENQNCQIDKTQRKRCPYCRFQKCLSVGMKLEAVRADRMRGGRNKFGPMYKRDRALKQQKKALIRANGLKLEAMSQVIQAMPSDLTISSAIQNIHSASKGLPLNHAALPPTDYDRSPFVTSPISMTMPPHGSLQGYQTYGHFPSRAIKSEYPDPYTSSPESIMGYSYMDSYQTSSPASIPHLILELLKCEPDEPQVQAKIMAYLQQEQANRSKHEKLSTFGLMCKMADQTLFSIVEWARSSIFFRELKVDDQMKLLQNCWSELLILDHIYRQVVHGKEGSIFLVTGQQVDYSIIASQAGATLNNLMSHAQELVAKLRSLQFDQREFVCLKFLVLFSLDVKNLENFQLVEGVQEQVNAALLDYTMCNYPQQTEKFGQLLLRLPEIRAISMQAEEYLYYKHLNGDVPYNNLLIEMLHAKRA
Sequence of Mu-type opioid receptor (P35372 whole entry): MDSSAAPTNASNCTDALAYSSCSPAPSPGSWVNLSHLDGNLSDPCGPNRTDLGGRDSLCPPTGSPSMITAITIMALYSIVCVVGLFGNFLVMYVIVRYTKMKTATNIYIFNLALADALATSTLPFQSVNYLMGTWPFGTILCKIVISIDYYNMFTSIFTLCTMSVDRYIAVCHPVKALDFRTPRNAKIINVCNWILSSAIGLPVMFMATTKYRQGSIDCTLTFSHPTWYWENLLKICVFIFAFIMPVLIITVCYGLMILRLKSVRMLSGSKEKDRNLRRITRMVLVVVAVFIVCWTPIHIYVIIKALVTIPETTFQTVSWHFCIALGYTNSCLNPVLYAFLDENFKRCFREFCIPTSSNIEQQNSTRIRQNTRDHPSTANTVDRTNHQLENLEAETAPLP
Sequence of ADP-ribosylation factor GTPase-activating protein 1 (Q62848 whole entry, the tested form may be a part): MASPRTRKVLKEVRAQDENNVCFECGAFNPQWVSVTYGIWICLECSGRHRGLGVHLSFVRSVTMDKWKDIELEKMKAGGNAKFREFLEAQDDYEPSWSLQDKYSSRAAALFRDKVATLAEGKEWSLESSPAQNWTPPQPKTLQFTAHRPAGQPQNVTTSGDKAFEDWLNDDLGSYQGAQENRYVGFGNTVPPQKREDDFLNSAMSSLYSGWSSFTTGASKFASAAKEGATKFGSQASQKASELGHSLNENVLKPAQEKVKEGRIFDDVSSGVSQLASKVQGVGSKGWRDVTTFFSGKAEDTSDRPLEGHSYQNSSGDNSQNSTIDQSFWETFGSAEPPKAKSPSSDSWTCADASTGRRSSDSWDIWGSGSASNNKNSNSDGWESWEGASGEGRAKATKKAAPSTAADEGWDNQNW
Sequence of 5-hydroxytryptamine receptor 2A (P35363 whole entry): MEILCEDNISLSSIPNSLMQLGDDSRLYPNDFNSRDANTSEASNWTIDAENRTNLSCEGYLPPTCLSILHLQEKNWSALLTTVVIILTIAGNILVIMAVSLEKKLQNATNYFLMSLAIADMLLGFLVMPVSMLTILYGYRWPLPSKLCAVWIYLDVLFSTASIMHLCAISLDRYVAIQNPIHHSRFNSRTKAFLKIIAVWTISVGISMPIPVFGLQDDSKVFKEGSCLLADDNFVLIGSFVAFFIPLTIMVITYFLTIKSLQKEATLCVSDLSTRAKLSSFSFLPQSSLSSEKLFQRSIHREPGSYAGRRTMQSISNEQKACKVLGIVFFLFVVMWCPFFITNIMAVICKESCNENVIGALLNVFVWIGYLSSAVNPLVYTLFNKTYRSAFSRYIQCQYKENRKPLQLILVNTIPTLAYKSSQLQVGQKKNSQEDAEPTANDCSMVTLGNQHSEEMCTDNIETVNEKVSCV

Structure (SMILES): CCOc1ccc(NC(=O)COC(=O)c2ccc3c(c2)OCCO3)cc1
IC50 (Steroidogenic factor 1): 1.01 µM (active)
IC50 [1]: 35.9 µM (inactive)
IC50 [2]: 12.9 µM (inactive)

Structure (SMILES): COc1ccc(CN(C)C[C@@H]2Oc3c(NC(=O)Nc4ccc(C(F)(F)F)cc4)cccc3C(=O)N([C@H](C)CO)C[C@H]2C)cc1
AC50 [3]: 11.3 µM (active)
AC50 [4]: 1.8 µM (active)

EC50 [5]: 20.2 µM (inactive)
EC50 (Mu-type opioid receptor): 92.5 µM (inactive)
Structure (SMILES): Cc1ccccc1C(=O)O/N=C(\c1ccccc1)c1ccccn1

IC50 [6]: 119 µM (inactive)
IC50 [7]: 116 µM (inactive)
Structure (SMILES): COC(=O)Cn1cc(/C=N/NC(=O)COc2cccc3cccnc23)c2ccccc21

Structure (SMILES): CC(=O)Nc1ccc(S(=O)(=O)N2CCN(c3nc(NC4CCCC4)c4ccccc4n3)CC2)cc1
EC50 [8]: 13.7 µM (active)
EC50 [9]: 12.4 µM (active)
IC50 [10]: 28.2 µM (inactive)
EC50 [11]: 12.7 µM (active)
IC50 [12]: 20.7 µM (inactive)
EC50 [13]: 13.2 µM (active)
